Where two headings read alike, the source gives them in different places.
Tests used:
[1] = biological target: hPIV-3 C243 HN (neuraminidase function) (UniProt P08492, species not given/STRAIN_C243); test: Neuraminidase inhibition assay (MUN), hPIV-3 C243; assay type: biochemical, hPIV-3 (strain C-243); conditions: pH 4.6
[2] = biological target: hPIV-3 CI002 HN (neuraminidase function) (UniProt P08492, species not given/STRAIN_CI002); test: Neuraminidase inhibition assay (MUN), hPIV-3 CI002; assay type: biochemical, hPIV-3 (strain CI002, clinical isolate); conditions: pH 4.6
Sequence of hPIV-3 CI002 HN (neuraminidase function) (P08492 whole entry, change not shown): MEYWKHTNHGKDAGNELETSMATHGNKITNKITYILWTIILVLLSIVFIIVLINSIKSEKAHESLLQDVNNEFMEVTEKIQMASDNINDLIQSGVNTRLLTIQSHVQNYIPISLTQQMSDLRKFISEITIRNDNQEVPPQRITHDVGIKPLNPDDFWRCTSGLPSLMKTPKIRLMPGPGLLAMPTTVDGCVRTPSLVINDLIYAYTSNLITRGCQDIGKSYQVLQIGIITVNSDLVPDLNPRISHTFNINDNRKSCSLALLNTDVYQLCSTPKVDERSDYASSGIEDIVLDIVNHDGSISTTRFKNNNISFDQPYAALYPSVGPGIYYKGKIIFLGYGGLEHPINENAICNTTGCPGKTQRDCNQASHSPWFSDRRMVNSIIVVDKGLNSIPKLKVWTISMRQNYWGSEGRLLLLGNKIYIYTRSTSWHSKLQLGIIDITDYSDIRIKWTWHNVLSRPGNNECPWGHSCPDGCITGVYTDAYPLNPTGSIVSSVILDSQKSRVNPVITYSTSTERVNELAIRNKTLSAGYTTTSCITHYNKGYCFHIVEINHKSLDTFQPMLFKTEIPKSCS

hPIV-3 CI002 = test: In situ ELISA virus growth inhibition, hPIV-3 CI002; assay type: cell-based; conditions: Human respirovirus 3, in Macaca mulatta, LLC-MK2 cells, 36-40 h, read-out: Viral Growth IC50 (converted)
[3] = biological target: hPIV-1 C35 HN (neuraminidase function) (Human parainfluenza 1 virus, UniProt P16071); test: Neuraminidase inhibition assay (MUN), hPIV-1 C35; assay type: biochemical, hPIV-1 (strain C-35)
Sequence of hPIV-1 C35 HN (neuraminidase function) (P16071 whole entry): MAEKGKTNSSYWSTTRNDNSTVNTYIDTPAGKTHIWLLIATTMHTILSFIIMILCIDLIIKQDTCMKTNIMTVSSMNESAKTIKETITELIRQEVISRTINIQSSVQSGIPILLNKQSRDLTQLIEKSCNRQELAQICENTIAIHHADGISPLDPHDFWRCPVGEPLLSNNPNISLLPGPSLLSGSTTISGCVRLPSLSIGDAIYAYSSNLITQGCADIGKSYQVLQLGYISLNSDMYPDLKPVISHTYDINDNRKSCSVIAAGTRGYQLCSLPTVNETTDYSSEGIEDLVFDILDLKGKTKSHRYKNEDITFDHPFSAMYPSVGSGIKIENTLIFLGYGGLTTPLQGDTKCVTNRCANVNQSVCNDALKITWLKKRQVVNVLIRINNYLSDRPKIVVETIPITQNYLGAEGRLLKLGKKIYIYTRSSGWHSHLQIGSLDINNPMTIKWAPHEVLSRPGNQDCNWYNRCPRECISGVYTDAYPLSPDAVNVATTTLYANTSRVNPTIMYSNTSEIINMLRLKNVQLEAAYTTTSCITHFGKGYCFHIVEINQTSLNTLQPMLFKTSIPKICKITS

hPIV-3 C243 = test: In situ ELISA virus growth inhibition, hPIV-3 C243; assay type: cell-based, hPIV-3 (strain C243) in LLC-MK2 cells (Rhesus monkey kidney); conditions: read-out: Viral Growth IC50
[4] = biological target: hPIV-3 C243 HN (haemagglutination function) (UniProt P08492, species not given/STRAIN_C243); test: Haemagglutination inhibition assay, hPIV-3 C243; assay type: biochemical, hPIV-3 (strain C-243); conditions: 1% human red blood cells
Sequence of hPIV-3 C243 HN (haemagglutination function) (P08492 whole entry, change not shown): as the sequence (P08492 whole entry, change not shown) above

[5] = biological target: hPIV-1 C35 HN (haemagglutination function) (Human parainfluenza 1 virus, UniProt P16071); test: Haemagglutination inhibition assay, hPIV-1 C35; assay type: biochemical, hPIV-1 (strain C-35)
Sequence of hPIV-1 C35 HN (haemagglutination function) (P16071 whole entry): as the sequence (P16071 whole entry) above

[6] = biological target: hPIV-3 CI002 HN (haemagglutination function) (UniProt P08492, species not given/STRAIN_CI002); test: Haemagglutination inhibition assay, hPIV-3 CI002; assay type: biochemical, hPIV-3 (strain CI002, clinical isolate); conditions: 1% human red blood cells
Sequence of hPIV-3 CI002 HN (haemagglutination function) (P08492 whole entry, change not shown): as the sequence (P08492 whole entry, change not shown) above

[7] = Human respirovirus 3, in Macaca mulatta, hPIV-3 C243, LLC-MK2 cells, in situ ELISA, 36-40 h
[8] = Human respirovirus 3, LLC-MK2, in Macaca mulatta

Sequence of hPIV-3 C243 HN (neuraminidase function) (P08492 whole entry, change not shown): as above

`CC(C)C(=O)N[C@H]1[C@H]([C@H](O)[C@H](O)CO)OC(C(=O)O)=C[C@@H]1n1nnc2ccc3[nH]ccc3c21` (single isomer, unassigned) [IE1963-113a] gave an IC50 [1] of 17 ± 0.764 µM, an IC50 [2] of 34.9 µM and an IC50 (hPIV-3 CI002) of 42.6 µM. It also gave an IC50 [3] of 6.33 µM, an IC50 (hPIV-3 C243; [7]) of 111 ± 9.29 µM and an IC50 [4] of 36.7 µM.

With `CC(C)C(=O)N[C@H]1[C@H]([C@H](O)[C@H](O)CO)OC(C(=O)O)=C[C@@H]1n1nnc2c3cc[nH]c3ccc21` (single isomer, unassigned) [IE1963-113b] the IC50 [1] was 5.14 ± 0.777 µM, the IC50 [2] was 17.1 µM and the IC50 (hPIV-3 CI002) was 8.7 µM. For the same compound, the IC50 [3] was 8.4 µM, the IC50 (hPIV-3 C243; [7]) was 24.4 ± 3.35 µM and the IC50 [4] was 3 µM.

`O=C(O)C1=C[C@H](n2cc3ccncc3n2)[C@@H](NC(=O)C(F)(F)F)[C@H]([C@H](O)[C@H](O)CO)O1` [JC2001-48, 2,6-Anhydro-3,4,5-trideoxy-5-(2,2,2-trifluoroacetamido)-4-(2H-pyrazolo[3,4-c]pyridin-2-yl)-D-glycero-D-galacto-non-2-enonic Acid] gave an IC50 [5] of 0.27 µM, an IC50 [1] of 21.5 µM and an IC50 [2] of 29.2 µM. For the same compound, the IC50 (hPIV-3 CI002) was 8.48 µM, the IC50 [3] was 1.71 µM and the IC50 [6] was 4.94 µM. The IC50 (hPIV-3 C243; [8]) was 54.5 ± 16.1 µM and the IC50 [4] was 13.1 µM.

`O=C(O)C1=C[C@H](n2cc3ncccc3n2)[C@@H](NC(=O)C(F)(F)F)[C@H]([C@H](O)[C@H](O)CO)O1` [JC2001-49, 2,6-Anhydro-3,4,5-trideoxy-5-(2,2,2-trifluoroacetamido)-4-(2H-pyrazolo[4,3-b]pyridin-2-yl)-D-glycero-D-galacto-non-2-enonic Acid] gave an IC50 [5] of 14.8 µM, an IC50 [1] of 8.33 ± 1.24 µM and an IC50 [2] of 15.1 µM. For the same compound, the IC50 (hPIV-3 CI002) was 11.5 µM, the IC50 [3] was 23.2 µM and the IC50 [6] was 4.94 µM. It also gave an IC50 (hPIV-3 C243; [8]) of 26.9 µM and an IC50 [4] of 13.1 µM.

In the case of `CC(C)C(=O)N[C@H]1[C@H]([C@H](O)[C@H](O)CO)OC(C(=O)O)=C[C@@H]1n1cc2cc(F)sc2c1C#N` [RE1993-40], the IC50 [5] is reported as 22.2 µM, the IC50 [1] is reported as 1.14 ± 0.021 µM and the IC50 [2] is reported as 2.71 µM. It also gave an IC50 (hPIV-3 CI002) of 3.96 µM, an IC50 [3] of 5.41 µM and an IC50 [6] of 0.82 µM. The IC50 (hPIV-3 C243; [7]) was 3.22 ± 0.726 µM and the IC50 [4] was 0.735 ± 0.259 µM.

`O=C(O)C1=C[C@H](n2cc3ccc4cccnc4c3n2)[C@@H](NC(=O)C(F)(F)F)[C@H]([C@H](O)[C@H](O)CO)O1` [RP1967-89, 2,6-Anhydro-3,4,5-trideoxy-5-(2,2,2-trifluoroacetamida)-4-(2H-pyrazolo[4,3-h]quinolin-2-yl)-D-glycero-D-galacto-non-2-enonic Acid] was tested, and the IC50 [5] was over 200 µM, the IC50 [1] was 5.52 ± 0.983 µM and the IC50 [2] was 19.9 µM. For the same compound, the IC50 (hPIV-3 CI002) was 5 µM, the IC50 [3] was 88.9 µM and the IC50 [6] was 4.94 µM. The IC50 (hPIV-3 C243; [8]) was 9.67 µM and the IC50 [4] was 3 µM.
